Data taken from ChEMBL document CHEMBL1821607, “N-Arylalkyl-2-azaadamantanes as cage-expanded polycarbocyclic sigma (σ) receptor ligands” (Bioorg Med Chem Lett, 2011).

Legend:
[1] = target: Sigma non-opioid intracellular receptor 1 (Cavia porcellus, UniProt Q60492); experiment: Displacement of [3H](+)-pentazocine from sigma 1 receptor in guinea pig brain homogenates after 90 mins by scintillation counting; type: tissue-based
[2] = Selectivity ratio of Ki for sigma 1 receptor in guinea pig brain to Ki for sigma 2 receptor in rat liver
[3] = Displacement of [3H]DTG from sigma 2 receptor in rat liver homogenates in presence of sigma-1 receptor blocker (+)-pentazocine after 120 mins by liquid scintillation counting; type: tissue-based
[4] = Selectivity ratio of Ki for sigma 2 receptor in rat liver to Ki for sigma 1 receptor in guinea pig brain

Sequence of Sigma non-opioid intracellular receptor 1 (Q60492 whole entry): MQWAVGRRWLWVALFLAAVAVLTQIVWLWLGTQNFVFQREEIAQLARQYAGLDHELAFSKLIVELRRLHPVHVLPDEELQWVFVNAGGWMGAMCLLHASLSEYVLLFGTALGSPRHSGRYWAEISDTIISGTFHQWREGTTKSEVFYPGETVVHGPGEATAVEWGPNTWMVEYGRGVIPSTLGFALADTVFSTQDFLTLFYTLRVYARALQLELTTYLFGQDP

Structure (SMILES) | Ki [1] | Ratio Ki [2] | Ki [3] | Ratio Ki [4]
COc1ccc(CN2C3CC4CC(C3)CC2C4)cc1 | 12.4 nM |  | 54 nM | 4.4
Fc1ccc(CN2C3CC4CC(C3)CC2C4)cc1 | 12 nM |  | 90 nM | 7.5
Fc1cccc(CCN2C3CC4CC(C3)CC2C4)c1 | 8.3 nM |  | 40 nM | 4.8
Fc1ccc(CCN2C3CC4CC(C3)CC2C4)cc1 | 12.8 nM |  | 34 nM | 2.7

Continued by falling Ki [1], values first:

Ki [1] | Ratio Ki [2] | Ki [3] | Structure (SMILES) | Ratio Ki [4]
1950 nM | 5.5 | 353 nM | COc1cccc(CN2C3CC4CC(C3)CC2(O)C4)c1 (racemic) | 
1240 nM | 2.9 | 426 nM | COc1ccc(CN2C3CC4CC(C3)CC2(O)C4)cc1 (racemic) | 
650 nM |  | 826 nM | OC12CC3CC(CC(C3)N1Cc1ccc(F)cc1)C2 (racemic) | 1.3
246 nM | 1.2 | 201 nM | OC12CC3CC(CC(C3)N1CCc1ccc(F)cc1)C2 (racemic) | 
239 nM | 3.7 | 64 nM | COc1cccc(CN2C3CC4CC(C3)CC2C4)c1 | 
234 nM |  | 250 nM | OC12CC3CC(CC(C3)N1CCc1cccc(F)c1)C2 (racemic) | 1.1
